EC50 data for 26 compounds are collected here from patent publication US20220033406A1, “C[…] AS ANTI-VIRALS” (priority 2018, published 2022).

Read-outs that look alike come from different tables or passages of the source. A value given as a limit tells only on which side of the number the result lay.

The test system of assay [1] is VSV-G pseudotyped HIV NL4-3. Briefly: microbe, parasite or virus in culture. Type of assay: cell-based.
For the next assay, the system named is HBV. Briefly: Inhibition of HBV in HepG2.117 cells (anti-HBV activity, qPCR). The assay is classed as cell-based. As to conditions: HBV viral DNA copy numbers in supernatant by qPCR. (Quantitative PCR measures a nucleic acid by following its amplification.)
[2] abbreviates: Human immunodeficiency virus 1, NL43, 72 h, read-out: HIV EC50 (uM).
Setting [3] is: Hepatitis B virus, HepG2.117, 96 h, Table 2 nucleosides.
The mark [4] stands for this setting: Hepatitis B virus, HepG2.117, 96 h, Table 4 phosphoramidate prodrugs.

The term EC50 denotes the concentration that produces a half-maximal response.

For `C=C1[C@@H](n2cnc3c(N)ncnc32)C[C@H](O)[C@@]1(F)CO` [Example 6, (1S,2S,4S)-4-(6-Amino-9H-purin-9-yl)-2-fluoro-2-(hydroxymethyl)-3-methylenecyclopentan-1-ol], the EC50 came out at 2.68 µM in assay [1] (setting [2]) and 0.0617 µM in the assay with HBV (setting [3]). Turning to `C=C1[C@@H](n2cnc3c(=O)[nH]c(N)nc32)C[C@H](O)[C@@]1(C#N)COP(=O)(N[C@@H](C)C(=O)OC(C)C)Oc1ccccc1` (single isomer, unassigned) [Example 44, Isopropyl ((S*)-(((1S,3S,5S)-3-(2-amino-6-oxo-1,6-dihydro-9H-purin-9-yl)-1-cyano-5-hydroxy-2-methylenecyclopentyl)methoxy)(phenoxy)phosphoryl)-L-alaninate], the EC50 in assay [1] (setting [2]) amounted to 2.29 µM; in the assay with HBV (setting [4]), 0.459 µM.

For the compound `C=C1[C@@H](n2cnc3c(=O)[nH]c(N)nc32)C[C@H](O)[C@]1(CO)CF` [Example 10, 2-Amino-9-((1S,3S,4S)-3-(fluoromethyl)-4-hydroxy-3-(hydroxymethyl)-2-methylenecyclopentyl)-1,9-dihydro-6H-purin-6-one], the EC50 in assay [1] (setting [2]) was determined as 0.662 µM; in the assay on HBV (setting [3]), 0.166 µM. For `C=C1[C@@H](n2cnc3c(=O)[nH]c(N)nc32)C[C@H](O)[C@@]1(C#N)CO` [Example 18, (1S,3S,5S)-3-(2-Amino-6-oxo-1,6-dihydro-9H-purin-9-yl)-5-hydroxy-1-(hydroxymethyl)-2-methylenecyclopentane-1-carbonitrile], the EC50 in assay [1] (setting [2]) came to 0.12 µM; with HBV (setting [3]) it was 0.0466 µM. Consider `C=C1[C@@H](n2cnc3c(N)ncnc32)C[C@H](O)[C@]1(CO)CCl` [Example 14, (1S,2S,4S)-4-(6-Amino-9H-purin-9-yl)-2-(chloromethyl)-2-(hydroxymethyl)-3-methylenecyclopentan-1-ol], for which the results for the EC50 (in assay [1] (setting [2]); in the assay with HBV (setting [3])) were 1.08 µM and 3.45 µM, respectively.

With `C=C1[C@@H](n2ccc(N)nc2=O)C[C@H](O)[C@]1(CO)CF` [Example 11, 4-Amino-1-((1S,3S,4S)-3-(fluoromethyl)-4-hydroxy-3-(hydroxymethyl)-2-methylenecyclopentyl)pyrimidin-2(1H)-one], the EC50 stood at 0.911 µM in assay [1] (setting [2]) and 9.18 µM in the assay on HBV (setting [3]). The corresponding values for `C=C1[C@@H](n2cc(C)c(=O)[nH]c2=O)C[C@H](O)[C@]1(CO)CF` [Example 12, 1-((1S,3S,4S)-3-(fluoromethyl)-4-hydroxy-3-(hydroxymethyl)-2-methylenecyclopentyl)-5-methylpyrimidine-2,4(1H,3H)-dione] are over 33.3 µM and over 10 µM.

Consider `C=C1[C@@H](n2ccc3c(N)ncnc32)C[C@H](O)[C@@]1(F)CO` [Example 1, (1S,2S,4S)-4-(4-Amino-7H-pyrrolo[2,3-d]pyrimidin-7-yl)-2-fluoro-2-(hydroxymethyl)-3-methylenecyclopentan-1-ol], for which the EC50 in the assay with HBV (setting [3]) was 0.0109 µM. Regarding `C=C1[C@@H](n2cnc3c(N)ncnc32)C[C@H](O)[C@@]1(C#N)CO` [Example 17, (1S,3S,5S)-3-(6-Amino-9H-purin-9-yl)-5-hydroxy-1-(hydroxymethyl)-2-methylenecyclopentane-1-carbonitrile], the EC50 in assay [1] (setting [2]) was 2.21 µM; with HBV (setting [3]), over 10 µM. Regarding `C=C1[C@H](n2cnc3c(N)ncnc32)C[C@H](O)[C@]1(F)CO` [Example 7, (1S,2R,4R)-4-(6-Amino-9H-purin-9-yl)-2-fluoro-2-(hydroxymethyl)-3-methylenecyclopentan-1-ol], the concentration for a half-maximal effect (EC50) in assay [1] (setting [2]) was over 33.3 µM; in the assay with HBV (setting [3]), over 10 µM. With `C=C1[C@H](n2cnc3c(=O)[nH]c(N)nc32)C[C@H](O)[C@]1(F)CO` [Example 5, 2-Amino-9-((1R,3R,4S)-3-fluoro-4-hydroxy-3-(hydroxymethyl)-2-methylenecyclopentyl)-1,9-dihydro-6H-purin-6-one], the EC50 was over 33.3 µM in assay [1] (setting [2]) and 2.47 µM in the assay on HBV (setting [3]). Regarding `C=C1[C@H](CO)[C@@H](O)C[C@@H]1n1ccc2c(=O)[nH]c(N)nc21` [Example 2, 2-Amino-7-((1S,3R,4S)-4-hydroxy-3-(hydroxymethyl)-2-methylenecyclopentyl)-3,7-dihydro-4H-pyrrolo[2,3-d]pyrimidin-4-one], the figures for the EC50 (in assay [1] (setting [2]); in the assay with HBV (setting [3])) were over 33.3 µM and over 10 µM, respectively. As for `C#C[C@]1(CO)C(=C)[C@@H](n2cnc3c(N)ncnc32)C[C@@H]1O` [Example 19, (1S,2R,4S)-4-(6-Amino-9H-purin-9-yl)-2-ethynyl-2-(hydroxymethyl)-3-methylenecyclopentan-1-ol], the values for the EC50 (in assay [1] (setting [2]); in the assay on HBV (setting [3])) were 0.0665 µM and over 10 µM, respectively.

With `C=C1[C@@H](n2ccc(N)nc2=O)C[C@H](O)[C@@]1(C#N)CO` [Example 16, (1S,3S,5S)-3-(4-Amino-2-oxopyrimidin-1(2H)-yl)-5-hydroxy-1-(hydroxymethyl)-2-methylenecyclopentane-1-carbonitrile], the 50% effective concentration (EC50) in assay [1] (setting [2]) is 5.83 µM; in the assay with HBV (setting [3]), over 10 µM.

With `C=C1[C@@H](n2cc(C)c(=O)[nH]c2=O)C[C@H](O)[C@@]1(F)CO` [Example 3, 1-((1S,3S,4S)-3-Fluoro-4-hydroxy-3-(hydroxymethyl)-2-methylenecyclopentyl)-5-methylpyrimidine-2,4(1H,3H)-dione], the EC50 was over 33.3 µM in assay [1] (setting [2]) and over 10 µM in the assay on HBV (setting [3]). Turning to `C=C1[C@@H](n2cnc3c(N)ncnc32)C[C@H](O)[C@@]1(CF)COP(=O)(N[C@@H](C)C(=O)OC(C)C)Oc1ccccc1` (stereo partly drawn) [Example 40, Isopropyl ((((1S,3S,5S)-3-(6-amino-9H-purin-9-yl)-1-(fluoromethyl)-5-hydroxy-2-methylenecyclopentyl)methoxy)(phenoxy)phosphoryl)-L-alaninate], the results for the 50% effective concentration (EC50) (in assay [1] (setting [2]); in the assay with HBV (setting [4])) were 0.144 µM and 0.0137 µM, respectively. Regarding `C=C1[C@@H](n2ccc(N)nc2=O)C[C@H](O)[C@@]1(C#N)COP(=O)(N[C@@H](C)C(=O)OC(C)C)Oc1ccccc1` (stereo partly drawn) [Example 42, Isopropyl ((((1S,3S,5S)-3-(4-amino-2-oxopyrimidin-1(2H)-yl)-1-cyano-5-hydroxy-2-methylenecyclopentyl)methoxy)(phenoxy)phosphoryl)-L-alaninate], the EC50 was 10.4 µM in assay [1] (setting [2]) and over 10 µM with HBV (setting [4]). For `C=C[C@]1(CO)C(=C)[C@@H](n2cnc3c(N)ncnc32)C[C@@H]1O` [Example 20, (1S,2R,4S)-4-(6-Amino-9H-purin-9-yl)-2-(hydroxymethyl)-3-methylene-2-vinylcyclopentan-1-ol], the concentration for a half-maximal effect (EC50) in assay [1] (setting [2]) was 0.547 µM; in the assay with HBV (setting [3]) it was over 10 µM. Consider `C=C1[C@@H](n2cc(C)c(=O)[nH]c2=O)C[C@H](O)[C@@]1(C#N)CO` [Example 15, (1S,3S,5S)-5-Hydroxy-1-(hydroxymethyl)-3-(5-methyl-2,4-dioxo-3,4-dihydropyrimidin-1(2H)-yl)-2-methylenecyclopentane-1-carbonitrile], for which the EC50 in assay [1] (setting [2]) was over 33.3 µM; in the assay with HBV (setting [3]), over 10 µM. Consider `C=C1[C@@H](n2cnc3c(=O)[nH]c(N)nc32)C[C@H](O)[C@@]1(F)CO` [Example 4, 2-Amino-9-((1S,3S,4S)-3-fluoro-4-hydroxy-3-(hydroxymethyl)-2-methylenecyclopentyl)-1,9-dihydro-6H-purin-6-one], for which the results for the EC50 (in assay [1] (setting [2]); in the assay with HBV (setting [3])) were 0.0356 µM and under 0.0009 µM, respectively. Regarding `C=C1[C@@H](n2cc(C)c(=O)[nH]c2=O)C[C@H](O)[C@@]1(C#N)COP(=O)(N[C@@H](C)C(=O)OC(C)C)Oc1ccccc1` (stereo partly drawn) [Example 41, Isopropyl ((((1S,3S,5S)-1-cyano-5-hydroxy-3-(5-methyl-2.4-dioxo-3.4-dihydropyrimidin-1(2H)-yl)-2-methylenecyclopentyl)methoxy)(phenoxy)phosphoryl)-L-alaninate], the EC50 was 10.2 µM in assay [1] (setting [2]) and over 10 µM in the assay on HBV (setting [4]). Regarding `C=C1[C@@H](n2cnc3c(N)ncnc32)C[C@H](O)[C@]1(CO)CF` [Example 13, (1S,2S,4S)-4-(6-Amino-9H-purin-9-yl)-2-(fluoromethyl)-2-(hydroxymethyl)-3-methylenecyclopentan-1-ol], the EC50 in assay [1] (setting [2]) is 5.02 µM; in the assay on HBV (setting [3]) it was over 5.53 µM. As for `C=C1[C@@H](n2cnc3c(=O)[nH]c(N)nc32)C[C@H](O)[C@@]1(C#N)COP(=O)(N[C@@H](C)C(=O)OC(C)C)Oc1ccccc1` (single isomer, unassigned) [Example 43, Isopropyl ((R*)-(((1S,3S,5S)-3-(2-amino-6-oxo-1,6-dihydro-9H-purin-9-yl)-1-cyano-5-hydroxy-2-methylenecyclopentyl)methoxy)(phenoxy)phosphoryl)-L-alaninate], the EC50 is 4.25 µM in assay [1] (read-out: HIV EC50) and 0.591 µM with HBV (96 h, Table 4 phosphoramidate prodrugs). `C#C[C@]1(COP(=O)(N[C@@H](C)C(=O)OC(C)C)Oc2ccccc2)C(=C)[C@@H](n2cnc3c(N)ncnc32)C[C@@H]1O` (stereo partly drawn) [Example 38, Isopropyl ((((1R,3S,5S)-3-(6-amino-9H-purin-9-yl)-1-ethynyl-5-hydroxy-2-methylenecyclopentyl)methoxy)(phenoxy)phosphoryl)-L-alaninate]: the EC50 in assay [1] (setting [2]) came out at 0.0506 µM; in the assay with HBV (setting [4]), 2.37 µM.

For `C=C1[C@H](CO)[C@@H](O)C[C@@H]1n1ccc2c(N)ncnc21` [Example 9, (1S,2R,4S)-4-(4-Amino-7H-pyrrolo[2,3-d]pyrimidin-7-yl)-2-(hydroxymethyl)-3-methylenecyclopentan-1-ol], the concentration for a half-maximal effect (EC50) in assay [1] (setting [2]) is over 33.3 µM; with HBV (setting [3]), 7.41 µM. Turning to `C=C1[C@@H](n2cnc3c(N)ncnc32)C[C@H](O)[C@@]1(F)COP(=O)(N[C@@H](C)C(=O)OCC(C)(C)C)Oc1ccccc1` (stereo partly drawn) [Example 39, Neopentyl ((((1S,3S,5S)-3-(6-amino-9H-purin-9-yl)-1-fluoro-5-hydroxy-2-methylenecyclopentyl)methoxy)(phenoxy)phosphoryl)-L-alaninate], the EC50 came to 0.0139 µM in assay [1] (setting [2]) and 0.0003 µM with HBV (setting [4]).
